Melting point data for two compounds are collected here from patent US6890923B2, “Compounds” (AstraZeneca AB, priority 2002, dated 2005).

`CC(C)Cn1c(=O)n(C)c(=O)c2c(CCC(=O)O)c(Cc3ccccc3C(F)(F)F)sc21` [Example 28, 1,2,3,4-Tetrahydro-3-methyl-1-(2-methylpropyl)-2,4-dioxo-6-[[2-(trifluoromethyl)phenyl]methyl]-thieno[2,3-d]pyrimidine-5-propanoic acid] registered a melting point of 165 to 167 °C.

The compound `CC(C)Cn1c(=O)n(C)c(=O)c2c(-c3ccsc3)c(Cc3ccccc3C(F)(F)F)sc21` [Example 6, 3-Methyl-1-(2-methylpropyl)-5-(3-thienyl)-6-[[2-(trifluoromethyl)phenyl]methyl]-thieno[2,3-d]pyrimidine-2,4(1H,3H)-dione] came in with a melting point of 113 to 114 °C.
